Data on two compounds can be found in publication PMC8533333, “Melatonin Analogues Potently Inhibit MAO-B and Protect PC12 Cells against Oxidative Stress” (Antioxidants, 2021).

The test system of the experiment is LPO in rat brain homogenates. The experiment in a line: Lipid peroxidation (LPO) induced by Fe2+ and L-ascorbic acid in rat forebrain homogenates. Format: biochemical. The settings on record: 100 μM; Fe2+ 10 µM and L-ascorbic acid 100 µM. As to the method:
The effects of the investigated compounds on the LPO levels in rat forebrain homogenates were evaluated as previously described. Sprague–Dawley (SD) rats were obtained from Daehan Biolink (Chungbuk, Korea) and maintained in the animal facility with controlled temperature (22 ± 2 °C) and relative humidity (40–60%). All the experimental steps and protocols of the animal experiments were approved by the Institutional Animal Ethical Committee of Dongguk University (Approval Number: IACUC-2019-001-2). To initiate LPO reaction, 3–4 mg protein/mL diluent of SD rat forebrain homogenates in 20 mM Tris-HCl buffer (pH 7.4) and several concentrations of the tested compounds dissolved in DMSO were added to a reaction mixture with 10 µM Fe^2+ and 100 µM L-ascorbic acid and incubated for 60 min at 37 °C. After halting the reaction by adding 28% w/v trichloroacetic acid and 1% w/v TBA in succession, the solution was heated for 15 min at 100 °C, which was followed by centrifugation at 3000 rpm for 10 min at 4 °C to separate the precipitates. […] The percentage of inhibition was calculated by the following formula:Inhibition (%) = 100 × (1 − Abssample/Abscontrol) (Abscontrol, the absorbance of control without tested compounds; Abssample, the absorbance of sample with tested compounds). […]

Consider `O=C(Nc1ccc2[nH]ccc2c1)c1cccc(Cl)c1` [3n, 3-Chloro-N-(1H-indol-5-yl)benzamide], for which the “inhibition of lipid peroxide formation (LPO)” value worked out at 23.5 ± 1.7%.

Take `O=C(Nc1ccc2[nH]ccc2c1)c1cccc(Br)c1` [3r, 3-Bromo-N-(1H-indol-5-yl)benzamide]: the “inhibition of lipid peroxide formation (LPO)” value worked out at 44.4 ± 2.2%.
